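Cells were grown in 96-well plates and exposed to each compound for 48 hours at five concentrations; endpoints were interpolated linearly between bracketing concentrations, or set to the highest concentration if not reached. At the GI50, growth is halved.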 Calls of active or inactive are those of the source. Cut-off read from the data, not from the text of the source: active = GI50 up to about 1.1 µM and inactive = higher.
What was measured:
Experiment in all cases: NCI-60 cell line screen, 48 h
[1] = tested on: UACC-62
[2] = tested on: OVCAR-3
[3] = tested on: MDA-MB-435
[4] = tested on: SR
[5] = tested on: HOP-62
[6] = tested on: LOX IMVI
[7] = tested on: SN12C
[8] = tested on: SF-539
[9] = tested on: UO-31
[10] = tested on: NCI/ADR-RES
[11] = tested on: ACHN
[12] = tested on: CAKI-1
[13] = tested on: EKVX
[14] = tested on: SK-MEL-2
[15] = tested on: COLO 205
[16] = tested on: OVCAR-4
[17] = tested on: SF-268
[18] = tested on: MDA-MB-231
[19] = tested on: KM12
[20] = tested on: SNB-75

SMILES	GI50 [1]	GI50 [2]	GI50 [3]	GI50 [4]	GI50 [5]	GI50 [6]	GI50 [7]	GI50 [8]	GI50 [9]	GI50 [10]	GI50 [11]	GI50 [12]	GI50 [13]	GI50 [14]	GI50 [15]	GI50 [16]	GI50 [17]	GI50 [18]	GI50 [19]	GI50 [20]
COc1cc2c(cc1OCCCC(=O)Nc1cc(C(=O)Nc3cc(C(=O)Nc4cc(C(=O)NCCCN(C)C)n(C)n4)n(C)n3)n(C)n1)N=CC1CCCN1C2=O (stereo not given)	20.3 µM (inactive)	29.9 µM (inactive)	20.1 µM (inactive)	2.77 µM (inactive)	45.5 µM (inactive)	3.07 µM (inactive)	21.1 µM (inactive)	26.2 µM (inactive)	4.39 µM (inactive)	31.8 µM (inactive)	13.2 µM (inactive)	18.2 µM (inactive)	> 100 µM (inactive)	24.8 µM (inactive)	3.53 µM (inactive)	16.1 µM (inactive)	31.2 µM (inactive)	24.2 µM (inactive)	21.1 µM (inactive)	27.9 µM (inactive)
Brc1cccc(/C=C/CN2CCN(CCOC(c3ccccc3)c3ccccc3)CC2)c1	17.4 µM (inactive)	15.4 µM (inactive)	12.6 µM (inactive)	9.02 µM (inactive)	15.9 µM (inactive)	14.5 µM (inactive)	15 µM (inactive)	15.7 µM (inactive)	13.1 µM (inactive)	14.7 µM (inactive)	17.5 µM (inactive)	15.9 µM (inactive)	17.5 µM (inactive)	17.8 µM (inactive)	14.2 µM (inactive)	11.7 µM (inactive)	16.4 µM (inactive)	13.9 µM (inactive)	14.8 µM (inactive)	6.08 µM (inactive)
CN(C)CCn1c(=O)c2ccc(NCCCN(C)CCCNc3ccc4c(=O)n(CCN(C)C)c(=O)n5c6ccc(O)cc6c(=O)c3c45)c3c(=O)c4cc(O)ccc4n(c1=O)c23	< 0.0116 µM (active)	0.059 µM (active)	< 0.01 µM (active)	< 0.01 µM (active)	< 0.032 µM (active)	< 0.01 µM (active)	< 0.01 µM (active)	< 0.01 µM (active)	0.0107 µM (active)	0.181 µM (active)	< 0.01 µM (active)	< 0.01 µM (active)	0.0933 µM (active)	0.0335 µM (active)	< 0.01 µM (active)	< 0.01 µM (active)	0.0481 µM (active)	< 0.0244 µM (active)	< 0.01 µM (active)	< 0.01 µM (active)
O=c1c2ccccc2sc2cccc(NCCCN3CCN(CCCNc4cccc5sc6ccccc6c(=O)c45)CC3)c12	64.7 µM (inactive)	> 100 µM (inactive)	> 100 µM (inactive)	> 100 µM (inactive)	> 100 µM (inactive)	> 100 µM (inactive)	> 100 µM (inactive)	> 100 µM (inactive)	> 100 µM (inactive)	> 100 µM (inactive)	> 100 µM (inactive)	> 100 µM (inactive)	> 100 µM (inactive)	> 100 µM (inactive)	> 100 µM (inactive)	> 100 µM (inactive)	> 100 µM (inactive)	> 100 µM (inactive)	> 100 µM (inactive)	19.5 µM (inactive)
O=C(Nc1ccccc1)OCCN=c1c2ccccc2ccc2ccccc12	15 µM (inactive)	17.5 µM (inactive)	27.6 µM (inactive)	18.2 µM (inactive)	28.2 µM (inactive)	20.3 µM (inactive)	25.5 µM (inactive)	19.8 µM (inactive)	17 µM (inactive)	21.3 µM (inactive)	20.9 µM (inactive)	26.4 µM (inactive)	24.9 µM (inactive)	11.3 µM (inactive)	21 µM (inactive)	25.8 µM (inactive)	34.8 µM (inactive)	24.9 µM (inactive)	19.1 µM (inactive)	26 µM (inactive)
CCSc1s/c(=N/c2ccc(/N=c3\sc(C)c(SC)s3)cc2)sc1-c1ccc(C)cc1	> 100 µM (inactive)	> 100 µM (inactive)	> 100 µM (inactive)	> 100 µM (inactive)	> 100 µM (inactive)	> 100 µM (inactive)	> 100 µM (inactive)	> 100 µM (inactive)	> 100 µM (inactive)	> 100 µM (inactive)	> 100 µM (inactive)	> 100 µM (inactive)	> 100 µM (inactive)	> 100 µM (inactive)	> 100 µM (inactive)	> 100 µM (inactive)	> 100 µM (inactive)	> 100 µM (inactive)	> 100 µM (inactive)	32 µM (inactive)
C=CC1=C(C)c2cc3[nH]c(c4c5nc(cc6[nH]c(cc1n2)c(C)c6CC)C(C)=C5C(=O)[C@@H]4C(=O)OC)[C@@H](CCC(=O)O)[C@@H]3C	2.16 µM (inactive)	2.04 µM (inactive)	2.24 µM (inactive)	0.634 µM (active)	8.95 µM (inactive)	6.22 µM (inactive)	5.45 µM (inactive)	1.86 µM (inactive)	2.33 µM (inactive)	9.02 µM (inactive)	2.27 µM (inactive)	9.51 µM (inactive)	10.2 µM (inactive)	4.13 µM (inactive)	4.28 µM (inactive)	2.54 µM (inactive)	9.82 µM (inactive)	11.2 µM (inactive)	4.83 µM (inactive)	2.11 µM (inactive)
COc1cc(/C=[N+](\[O-])c2ccccc2Cl)ccc1OC(=S)S	21 µM (inactive)	30.8 µM (inactive)	20.8 µM (inactive)	26.1 µM (inactive)	39.9 µM (inactive)	36.9 µM (inactive)	45.7 µM (inactive)	68.7 µM (inactive)	39.6 µM (inactive)	26.7 µM (inactive)	34 µM (inactive)	31.7 µM (inactive)	29.2 µM (inactive)	32.5 µM (inactive)	21.8 µM (inactive)	3.01 µM (inactive)	42.7 µM (inactive)	53.3 µM (inactive)	15.1 µM (inactive)	18 µM (inactive)
COc1ccc(Oc2cnn(C(Br)(Br)C(C)=O)c(=O)c2Br)cc1	15.7 µM (inactive)	4.19 µM (inactive)	10 µM (inactive)	1.69 µM (inactive)	16.7 µM (inactive)	11 µM (inactive)	15 µM (inactive)	12.4 µM (inactive)	7.66 µM (inactive)	18.5 µM (inactive)	13.6 µM (inactive)	10.8 µM (inactive)	17.1 µM (inactive)	16.3 µM (inactive)	13.4 µM (inactive)	17.4 µM (inactive)	14.6 µM (inactive)	17.9 µM (inactive)	14.8 µM (inactive)	15 µM (inactive)
O=c1[nH]nc(Cc2ccccc2)n1/N=C/c1c[nH]c2ccccc12	41.6 µM (inactive)	> 100 µM (inactive)	81.7 µM (inactive)	> 100 µM (inactive)	60.7 µM (inactive)	> 100 µM (inactive)	> 100 µM (inactive)	> 100 µM (inactive)	> 100 µM (inactive)	82.6 µM (inactive)	> 100 µM (inactive)	16.7 µM (inactive)	95.1 µM (inactive)	> 100 µM (inactive)	> 100 µM (inactive)	42.5 µM (inactive)	21.9 µM (inactive)	59 µM (inactive)	> 100 µM (inactive)	13.3 µM (inactive)
CCOC(=O)c1cc(C#N)[nH]c1-c1ccsc1	47.1 µM (inactive)	31 µM (inactive)	23.1 µM (inactive)	11.8 µM (inactive)	59.8 µM (inactive)	36.2 µM (inactive)	54.7 µM (inactive)	28.6 µM (inactive)	0.114 µM (active)	32.4 µM (inactive)	39.5 µM (inactive)	50.7 µM (inactive)	17.6 µM (inactive)	46.7 µM (inactive)	32.2 µM (inactive)	35.6 µM (inactive)	22.8 µM (inactive)	41.6 µM (inactive)	25.1 µM (inactive)	22.5 µM (inactive)
O=C(O)c1nc(-c2ccccn2)c(-c2ccccn2)nc1C(=O)O	2.1 µM (inactive)	2.87 µM (inactive)	3.62 µM (inactive)	2.03 µM (inactive)	2.15 µM (inactive)	2.07 µM (inactive)	3.27 µM (inactive)	3.38 µM (inactive)	1.64 µM (inactive)	2.75 µM (inactive)	0.678 µM (active)	2.92 µM (inactive)	1.88 µM (inactive)	4.95 µM (inactive)	2.47 µM (inactive)	2 µM (inactive)	3.31 µM (inactive)	9.82 µM (inactive)	2.75 µM (inactive)	3.49 µM (inactive)
COC(=O)C1=C(OC(=O)/C(=C/c2ccc(Cl)cc2Cl)c2ccc(Cl)cc2Cl)C(C(=O)OC)[C@@]2(O)[C@@H](C(=O)OC)[C@H](C)C[C@@H]1[C@@H]2C(=O)OC (stereo not given in full)	92.5 µM (inactive)	> 100 µM (inactive)	> 100 µM (inactive)	> 100 µM (inactive)	> 100 µM (inactive)	> 100 µM (inactive)	> 100 µM (inactive)	> 100 µM (inactive)	> 100 µM (inactive)	> 100 µM (inactive)	> 100 µM (inactive)	> 100 µM (inactive)	47.8 µM (inactive)	> 100 µM (inactive)	> 100 µM (inactive)	> 100 µM (inactive)	> 100 µM (inactive)	40 µM (inactive)	> 100 µM (inactive)	> 100 µM (inactive)
